{
  "source": "patent US20200255884A1",
  "about": "“METHOD OF DETECTION OF DNA END(S) AND ITS USE” (INTODNA SP. Z O.O., priority 2017, published 2020)",
  "test_system": "HeLa 21-4 cells",
  "test": "Procedure 1 on HeLa cells in suspension with subsequent isolation of chromatin, fluorescence spectrophotometer",
  "assay_type": "cell-based",
  "details": "H2O2 4 mM, 30 minutes",
  "description": "In this Example, HeLa 21-4 cells (obtained from P.R. Cook, University of Oxford) were seeded on 6-well plates and cultured for 48 hours in DMEM supplemented with 10% FBS until the culture reached 100% confluency (number of cells: 1.2×10^6 per 1 well). Next, cells were treated with the DNA damaging agent H2O2 which was added directly to the growth medium (final concentration: 4 mM). The cells were incubated at 37° C. for 30 minutes in the standard cell culture incubator with CO2 level control. The control, untreated cells and the damaged cells (H2O2) were then harvested using 0.5 ml trypsin and transferred to 1.5 ml eppendorf tubes. Afterwards, trypsin was inactivated by adding 0.5 ml DMEM supplemented with 10% FBS. Subsequently, cells were spun down in the table top centrifuge (Eppendorf centrifuge, 5417 C, rotor: F45-30-11) (1700 rpm, 5 minutes, room temperature). The cell pellet was resuspended in PBS and again spun down (this washing step was repeated twice). When the supernatant PBS was discarded, cells were resuspended in the remaining droplet of PBS. Subsequently, ice-cold 70% Et(OH) was added dropwise, and cells were incubated in Et(OH) for 30 minutes in −20° C. Then, the cells were treated according to Procedure 1, wherein steps 1, 3, 4, 9 were omitted, and every washing step and every incubation were followed by centrifugation. BrdU was linked to free ends of DNA using TdT enzyme using APO-BRDU kit (Phoenix Flow Systems, AU: 1001) according to the supplier's instructions. […] The fluorescence signal was generated using Duolink® In Situ Detection Reagents Green (Sigma, DUO92014). […]\nThe level of fluorescence intensity of the cell extract obtained from untreated control cells and the H2O2 damaged cells was measured using a fluorescence spectrophotometer (Hitachi F-7000 supplied with Xe lamp). The fluorescence intensity was measured for 30 s (excitation 480 nm, emission 520 nm).",
  "data": [
    {"smiles": "OO", "note": "[H2O2]", "values": [
      {"measurement": "fluorescence intensity per 1 ng of DNA", "setting": "cell extract", "result": "3.2±0.3×10^−4 a.u."},
      {"measurement": "flurescence signal per 1 ng of DNA", "setting": "cell extract", "result": "3.2 ± 0.3 × 10^−4 a.u./ng"},
      {"measurement": "fluorescence signal", "setting": "extract volume 40 μl, excitation 480 nm, emission 520 nm", "result": "0.046 ± 0.005", "unit": "a.u."}
    ]}
  ]
}
